Patent EP3866826B1, “ANTIMICROBIAL PEPTIDES AND METHODS OF USING THE SAME” (priority 2018, dated 2020)
Where no end group is shown, it is not given here.

How the values were obtained:
[1] = test system: Candida 17-88 biofilm; assay: Inhibition of preformed biofilm, metabolic evaluation using XTT (FIG. 5); format: cell-based, Candida albicans; conditions: added to preformed Candida 17-88 biofilm for 24 hours
Experimental: Fluconazole or RP557 were added to preformed Candida 17-88 biofilm for 24 hours and biofilm inhibition evaluated via metabolic evaluation using XTT, 2,3-bis (2-methoxy-4-nitro-5-sulfophenyl) [phenyl-amino)carbonyl]-2H. Data represent the mean±SD of triplicate measurements and statistical significance, compared to vehicle control, determined by one-way ANOVA followed by Dunnett's test (*p < 0.05, **p < 0.01, and ***p < 0.001).

[2] = test system: S. aureus, P. aeruginosa and Fuscobacterium ssp.; assay: Pharmacodynamic response in biofilm associated wounds, CFU counts of punch biopsies (FIG. 7); format: in vivo; conditions: 2% RP557 applied 24 hours post inoculation; biopsies at 30 min, 180 min and 24 hours post treatment
Experimental: (§1) From the in vitro screening assays three AMPs were selected for further evaluation in a qualified porcine burn wound model infected with P. aeruginosa and S. aureus. Full thickness wounds were created with heated brass rod and 2cm trephine: approximately 10 minutes after homeostasis, wounds were infected with a 2:2:1 mixture of S. aureus, P. aeruginosa and Fuscobacterium ssp. Treatment of infected wounds began 24 hours post infection to allow for biofilm formation.
FIG. 7A-7B Pharmacodynamic Response to RP557. Twenty four hours post bacterial inoculation biofilm associated wounds were treated with 2% RP557. Punch biopsies were taken at 30 min, 180 min and 24 hours post treatment, homogenized, plated and CFUs counted. Statistical significance was calculated using the Holm-Sidak method. *p<0.05, ***p<0.001, ****p<0.0001, dAMP vs Control.

[3] = Stability in serum, monitored via LC-MS/MS; format: in vitro ADME; conditions: human serum for 72 hrs at 37°C monitored via LC-MS/MS
Experimental: (§2) Exemplary AMP RP557 was prepared in one gram lots at 98% purity or better. […] Furthermore, advances in solid and solution phase peptide chemistry has enabled Good Manufacturing Practice (GMP) material to be produced rapidly, economically in high yield and purity.

[4] = test system: C. albicans (ATCC 44858); assay: Vaginal infection rodent model of vulvovaginal candidiasis, fungal counts (FIG. 8); format: in vivo; conditions: rats, 20 mg/mL IVG at 0.1 mL/rat twice daily for 3 days from 48 hr after infection, CFUs on Day 5 (p < 0.0001)
Experimental: FIG. 8A to 8B. RP557 topical treatment reduces rodent vaginal candidiasis. Effects of RP557, miconazole and oral fluconazole in the C. albicans (ATCC 44858) vaginal infection rodent model. On Day 0, rats were inoculated intravaginally (IVG) with C. albicans at 1.46 x 10^7 CFU/rat. RP557 and miconazole at 20 mg/mL were administered IVG at 0.1 mL/rat twice daily at 8 hr intervals starting from 48 hr after infection for 3 days. CFUs were evaluated on Day 5 with limit of detection (LOD) 0.7 CFU/rat. Significant difference, compared to vehicle, determined by one-way ANOVA followed by Dunnett's test (*p < 0.05, ****p < 0.0001). A separate group receiving oral fluconazole; *p < 0.05 versus 0.1 and 10 mg/kg fluconazole.

[5] = Physiochemical properties of RP557 (hydrophilicity, solubility, pH stability); format: physicochemical; conditions: extremes of pH (<4)
Experimental: as §2

[6] = test system: S. aureus 29213; assay: Resistance development by serial passage at sub-inhibitory concentrations, 30 passages (FIG. 4); format: cell-based
Experimental: (§3) FIG. 4A to 4B. […] Sub-inhibitory concentrations of RP557, gentamicin and clindamycin were incubated with P. aeruginosa 27853 and S. aureus 29213 for 24 hours. Bacteria showing growth in the highest concentration were re-passaged in fresh dilutions containing sub-minimum inhibitory concentration (MIC) levels of each component for 30 consecutive passages; means are shown.

[7] = test system: P. aeruginosa 27853; assay: as above; format: cell-based
Experimental: as §3

[8] = test system: S. aureus ATCC 6538; assay: Polymicrobial infected full-thickness thermal porcine burn model, bacterial counts (FIG. 6B); format: in vivo; conditions: pig, single topical application, sampled after 24 hours
Experimental: as §1
(§4) Full thickness wounds were created with a heated brass rod and a trephine on the back of anesthetized pigs followed by infection with 2:2:1 mixture of S. aureus ATCC 6538 (FIG. 6B) and P. aeruginosa (porcine isolate) (FIG. 6A) and fusobacterium ssp. After 3 hours, 0, 0.1, 0.2, 1 or 2% RP557 were applied. After 24 hours, wounds were sampled by punch biopsy and bacterial counts, expressed as log (Colony Forming Units, CFUs/g) evaluated. Data is expressed as mean±SE of 8 replicates. Statistical significance, compared to vehicle, determined by one-way ANOVA followed by Dunnett's test (**p < 0.01, ****p < 0.0001).

[9] = test system: P. aeruginosa (porcine isolate); assay: Polymicrobial infected full-thickness thermal porcine burn model, bacterial counts (FIG. 6A); format: in vivo; conditions: pig, single dose, 2% RP557 (p<0.0001), sampled after 24 hours
Experimental: as §1, §4

[10] = test system: L929 fibroblast cells; assay: Cytotoxicity to mammalian cells, cell viability (FIG. 3C); format: cell-based
Experimental: The rapid destruction of pathogenic cells by potent broad-spectrum topical anti-infectives infer a theoretical reduced likelihood of developing bacterial resistance. […] Cell viability was performed using bioluminescent strains of P. aeruginosa 19660 (FIG. 3A), S. aureus 49525 (FIG. 3B) & L929 fibroblast cells (FIG. 3C) and imaged with the IVIS Lumina system. Data represents the mean of 3 measurements.

[11] = test system: gram-negative bacteria; A. baumannii and P. aeruginosa; gram-positive bacteria, S. aureus and MRSA and fungal strains; C. albicans, C. parapsilosis, C. krusei …; assay: Antimicrobial activity against multiple clinical isolates of bacteria and fungal strains; format: cell-based
Experimental: Thirty-four AMPs were synthesized and evaluated in three iterative rounds. Each AMP was evaluated for antimicrobial potency against 11 strains of bacteria, 7 strains of fungi and their cytotoxicity determined using L929 fibroblasts and human keratinocytes. The AMPs were evaluated for biofilm eradication and ability to induce antimicrobial resistance.

## RFCWKVCYKGICFKKCK (disulfide (positions not given here)) [RP557, 17 amino acids, hairpin structure formed by two disulfide bonds]
[1]
  biofilm inhibition: potent inhibitor
[2]
  pharmacodynamic response, CFUs in wounds: Kills Infection Throughout a 24 Hour Period
[3]
  stability in serum: stable in serum
[4]
  fungal counts relative to the vehicle control group: significant reductions
[5]
  stability at extremes of pH: stable
[6]; clindamycin-resistant S. aureus
  susceptibility of the resistant strain at the end of 30 serial passages (cross resistance): readily susceptible
[6]; sub-inhibitory concentrations, 30 consecutive passages, S. aureus 29213
  development of resistance: did not develop resistance
[7]; gentamicin-resistant P. aeruginosa
  susceptibility of the resistant strain at the end of 30 serial passages (cross resistance): readily susceptible
[7]; sub-inhibitory concentrations, 30 consecutive passages, P. aeruginosa 27853
  development of resistance: did not develop resistance
[8]; 0.2% RP557 (p < 0.01)
  S. aureus CFU counts: 2.11±1.75 log CFU/g tissue
[8]; 1% RP557 (p < 0.0001)
  S. aureus CFU counts: 1.46±2.05 log CFU/g tissue
[9]
  number of viable P. aeruginosa bacteria: 1.96±1.64 log CFU/g tissue
[10]
  cytotoxicity to mammalian cells: not cytotoxic
[11]
  antimicrobial activity: broad-spectrum antimicrobial activity
